Measured values taken from patent US7999107B2, “Substituted pyrano[2,3-B]pyridine derivatives as cannabinoid-1 receptor modulators” (Merck Sharp & Dohme Corp., priority 2007, dated 2011).
Read-outs that look alike come from different tables or passages of the source.

Experiments:
[1] = target: T1, recombinant human CB1 receptor (Homo sapiens, UniProt P21554); assay: Cannabinoid Receptor-1 (CB1) Binding Assay
T1 construct: expressed in transfected cells; host or cells: CHO cells (membranes)
Protocol: Binding affinity determination is based on recombinant human CB1 receptor expressed in Chinese Hamster Ovary (CHO) cells (Felder et al, Mol. Pharmacol. 48: 443-450, 1995). Total assay volume is 250 μl (240 μl CB1 receptor membrane solution plus 5 μl test compound solution plus 5 μl [3H]CP-55940 solution). Final concentration of [3H]CP-55940 is 0.6 nM. Binding buffer contains 50 mM Tris-HCl, pH7.4, 2.5 mM EDTA, 5 mM MgCl2, 0.5 mg/mL fatty acid free bovine serum albumin and protease inhibitors (Cat#P8340, from Sigma). To initiate the binding reaction, 5 μl of radioligand solution is added, the mixture is incubated with gentle shaking on a shaker for 1.5 h at 30° C. The binding is terminated by using 96-well harvester and filtering through GF/C filter presoaked in 0.05% polyethylenimine. The bound radiolabel is quantitated using scintillation counter. Apparent binding affinities for various compounds are calculated from IC50 values (DeBlasi et al., Trends Pharmacol Sci 10: 227-229, 1989).

[2] = target: T2, recombinant human CB1 receptor expressed in CHO cells (Homo sapiens, UniProt P21554); assay: Cannabinoid Receptor-1 (CB1) Functional Activity Assay (cAMP); type: cell-based; details: forskolin-stimulated cAMP
Protocol: The functional activation of CB1 receptor is based on recombinant human CB1 receptor expressed in CHO cells (Felder et al, Mol. Pharmacol. 48: 443-450, 1995). To determine the agonist activity or inverse agonist activity of any test compound, 50 ul of CB1-CHO cell suspension are mixed with test compound and 70 ul assay buffer containing 0.34 mM 3-isobutyl-1-methylxanthine and 5.1 uM of forskolin in 96-well plates. The assay buffer is comprised of Earle's Balanced Salt Solution supplemented with 5 mM MgCl2, 1 mM glutamine, 10 mM HEPES, and 1 mg/mL bovine serum albumin. The mixture is incubated at room temperature for 30 minutes, and terminated by adding 30 ul/well of 0.5M HCl. The total intracellular cAMP level is quantitated using the New England Nuclear Flashplate and cAMP radioimmunoassay kit.

[3] = target: T2, recombinant human CB1 receptor expressed in CHO cells; assay: Cannabinoid Receptor-1 (CB1) Functional Antagonist Assay; type: cell-based; details: cAMP
Protocol: To determine the antagonist activity of test compound, the reaction mixture also contains 0.5 nM of the agonist CP55940 (or 50 nM of methanandamide), and the reversal of the CP55940 (or methanandamide) effect is quantitated with increasing concentration of the test compound. Intracellular cAMP is determined as described above. An IC50 value for the test compound is calculated from the titration curve.
Alternatively, a series of dose response curves for the agonist CP55940 (or methanandamide) is performed with increasing concentration of the test compound in each of the dose response curves, and a Schild analysis is carried to calculate the Kb value which is an estimation of test compound binding affinity.

[4] = [3H]CP-55940 0.6 nM, CHO cell membranes, read-out: CB1 binding IC50

T1 sequence (P21554 whole entry): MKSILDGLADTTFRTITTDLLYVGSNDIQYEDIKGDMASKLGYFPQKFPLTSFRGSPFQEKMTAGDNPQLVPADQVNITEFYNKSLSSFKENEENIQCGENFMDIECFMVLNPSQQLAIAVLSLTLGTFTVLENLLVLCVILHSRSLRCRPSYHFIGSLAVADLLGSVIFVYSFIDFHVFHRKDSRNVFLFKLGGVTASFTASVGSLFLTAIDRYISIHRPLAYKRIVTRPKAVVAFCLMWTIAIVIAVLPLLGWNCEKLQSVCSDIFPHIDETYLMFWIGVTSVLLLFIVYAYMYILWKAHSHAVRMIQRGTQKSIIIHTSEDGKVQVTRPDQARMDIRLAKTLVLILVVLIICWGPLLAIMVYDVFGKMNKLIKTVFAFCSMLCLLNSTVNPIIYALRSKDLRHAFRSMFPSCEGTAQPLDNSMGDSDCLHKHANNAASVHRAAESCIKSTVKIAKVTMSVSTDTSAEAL
T2 sequence (P21554 whole entry): as above

IC50 [1, 4] [nM] | EC50 [2] [nM] | functional character at CB1 [3] | SMILES | IC50 [1] [nM]
2 | < 20 | functional inverse agonists | CC(C)(C)C1CC(=O)c2cc(-c3ccc(Cl)cc3)c(-c3ccccc3Cl)nc2O1 (centres unmarked) [Example 12, 2-tert-Butyl-7-(2-chlorophenyl)-6-(4-chlorophenyl)-2,3-dihydro-4H-pyrano[2,3-b]pyridin-4-one] | 
 |  | functional inverse agonists | Cc1cc(C(=O)N[C@@H]2CC(C)(C)Oc3nc(-c4ccc(Cl)cc4Cl)c(-c4ccc(Cl)cc4)cc32)n[nH]1 [Example 327, N-[(4R)-6-(4-Chlorophenyl)-7-(2,4-dichlorophenyl)-2,2-dimethyl-3,4-dihydro-2H-pyrano[2,3-b]pyridin-4-yl]-5-methyl-1H-pyrazole-3-carboxamide] | 
2 | < 20 | functional inverse agonists | CN(C)C(=O)NC1CC(C)(C)Oc2nc(-c3ccc(Cl)cc3Cl)c(-c3ccc(Cl)cc3)cc21 (centres unmarked) [Example 111, N′-[6-(4-chlorophenyl)-7-(2,4-dichlorophenyl)-2,2-dimethyl-3,4-dihydro-2H-pyrano[2,3-b]pyridin-4-yl]-N,N-dimethylurea] | 
2 | < 20 | functional inverse agonists | CNC(=O)C(=O)NC1CC(C)(C)Oc2nc(-c3ccc(Cl)cc3Cl)c(-c3ccc(Cl)cc3)cc21 (centres unmarked) [Example 66, N-[6-(4-Chlorophenyl)-7-(2,4-dichlorophenyl)-2,2-dimethyl-3,4-dihydro-2H-pyrano[2,3-b]pyridin-4-yl]-N′-methylethanediamide] | 
2 | < 20 | functional inverse agonists | CC1(C)CC(Nc2ccccn2)c2cc(-c3ccc(Cl)cc3)c(-c3ccc(Cl)cc3Cl)nc2O1 (centres unmarked) [Example 245, 6-(4-Chlorophenyl)-7-(2,4-dichlorophenyl)-2,2-dimethyl-N-(pyridine-2-yl)-3,4-dihydro-2H-pyrano[2,3-b]pyridin-4-amine] | 

Continued, compound first:

SMILES | IC50 [1, 4] [nM] | EC50 [2] [nM] | functional character at CB1 [3] | IC50 [1] [nM]
Cc1cc(NC2CC(C)(C)Oc3nc(-c4ccc(Cl)cc4Cl)c(-c4ccc(Cl)cc4)cc32)n[nH]1 (centres unmarked) [Example 246, 6-(4-Chlorophenyl)-7-(2,4-dichlorophenyl)-2,2-dimethyl-N-(5-methyl-1H-pyrazol-3-yl)-3,4-dihydro-2H-pyrano[2,3-b]pyridin-4-amine] | 10 | < 20 | functional inverse agonists | 
O=C1CC2(CCCCC2)Oc2nc(-c3ccccc3Cl)c(-c3ccc(Cl)cc3)cc21 [Example 4, 7′-(2-Chlorophenyl)-6′-(4-chlorophenyl)spiro[cyclohexane-1,2′-pyrano[2,3-b]pyridin]-4′(3′H)-one] |  | < 20 | functional inverse agonists | 8
C[C@@H](O)C(=O)NC1CC(C)(C)Oc2nc(-c3ccc(Cl)cc3Cl)c(-c3ccc(Cl)cc3)cc21 (stereo partly drawn) [Example 96, (2R)-N-[6-(4-chlorophenyl)-7-(2,4-dichlorophenyl)-2,2-dimethyl-3,4-dihydro-2H-pyrano[2,3-b]pyridin-4-yl]-2-hydroxypropanamide] |  |  | functional inverse agonists | 
